Assay results published in ChEMBL document CHEMBL1828555, “Primary amino acid derivatives: substitution of the 4'-N'-benzylamide site in (R)-N'-benzyl 2-amino-3-methylbutanamide, (R)-N'-benzyl 2-amino-3,3-dimethylbutanamide, and (R)-N'-benzyl 2-amino-3-methoxypropionamide provides potent anticonvulsants with pain-attenuating properties” (J Med Chem, 2011).
The source made the active and inactive calls. The calls are words filed in the database; no cut-off is given here.

Experiments:
[1] = tested on: Mus musculus; assay: Anticonvulsant activity in ip dosed albino CF1 mouse assessed as protection against maximal electroshock-induced seizure after 30 mins; assay type: functional; details: 0.5 h
[2] = Neurotoxicity in ip dosed albino CF1 mouse assessed as median neurological impairing dose after 30 mins; assay type: toxicity, organism-based; details: in vivo
[3] = tested on: Mus musculus; assay: Protective index, ratio of TD50 for ip dosed NMRI mouse to ED50 for ip dosed NMRI mouse by maximal electroshock test; assay type: functional
[4] = tested on: Mus musculus; assay: Anticonvulsant activity in ip dosed albino CF1 mouse assessed as time of peak effect for protection against maximal electroshock-induced seizure; assay type: functional
[5] = tested on: Mus musculus; assay: Neurotoxicity in ip dosed albino CF1 mouse assessed as time of peak effect for median neurological impairing; assay type: toxicity, organism-based; details: in vivo
[6] = tested on: Mus musculus; assay: Anticonvulsant activity in ip dosed albino CF1 mouse assessed as protection against subcutaneous pentylenetetrazol-induced seizure; assay type: functional, organism-based
[7] = tested on: Rattus norvegicus; assay: Protective index, ratio of TD50 for po dosed albino Sprague-Dawley rat to ED50 for po dosed albino Sprague-Dawley rat by maximal electroshock test; assay type: functional
[8] = tested on: Rattus norvegicus; assay: Anticonvulsant activity in po dosed albino Sprague-Dawley rat assessed as time of peak effect for protection against maximal electroshock seizure; assay type: functional
[9] = tested on: Mus musculus; assay: Anticonvulsant activity in ip dosed albino CF1 mouse assessed as time of peak effect for protection against 6 Hz psychomotor seizure; assay type: functional
[10] = tested on: Rattus norvegicus; assay: Anticonvulsant activity in po dosed albino Sprague-Dawley rat assessed as protection against maximal electroshock seizure; assay type: functional
[11] = tested on: Mus musculus; assay: Anticonvulsant activity in ip dosed albino CF1 mouse assessed as protection against 6 Hz psychomotor seizure after 30 mins; assay type: functional; details: 0.5 h
[12] = Toxicity in po dosed albino Sprague-Dawley rat assessed as behavioural toxicity; assay type: organism-based; details: in vivo
[13] = tested on: Mus musculus; assay: Protective index, ratio of TD50 for ip dosed albino CF1 mouse to ED50 for ip dosed albino CF1 mouse by maximal electroshock test; assay type: functional
[14] = tested on: Mus musculus; assay: Analgesic activity in ip dosed albino CF1 mouse assessed as time of peak effect for reduction of formalin-induced neuropathic pain; assay type: functional
[15] = tested on: Mus musculus; assay: Analgesic activity in ip dosed albino CF1 mouse assessed as reduction of formalin-induced neuropathic pain after 30 mins; assay type: functional; details: 0.5 h
[16] = tested on: Rattus norvegicus; assay: Toxicity in po dosed albino Sprague-Dawley rat assessed as time of peak effect for behavioural toxicity; assay type: organism-based; details: in vivo
[17] = Neurotoxicity in ip dosed NMRI mouse assessed as median neurological impairing dose after 30 mins by rotarod test; assay type: toxicity, organism-based; details: in vivo
[18] = tested on: Mus musculus; assay: Analgesic activity in ip dosed NMRI mouse assessed as reduction in formalin-induced neuropathic pain after 30 mins; assay type: functional; details: 0.5 h
[19] = tested on: Mus musculus; assay: Anticonvulsant activity in ip dosed NMRI mouse assessed as protection against maximal electroshock seizure after 30 mins; assay type: functional; details: 0.5 h
[20] = tested on: Mus musculus; assay: Anticonvulsant activity in ip dosed 6 Hz psychomotor seizure model of NMRI mouse assessed as protection against seizure after 30 minutes; assay type: functional; details: 0.5 h

CC(C)(C)[C@H](N)C(=O)NCc1ccccc1
ED50 [1]: 42 mg/kg | TD50 at 0.5 h [2]: 105 mg/kg | Ratio TD50/ED50 [3]: 2.5 | Time [4]: 0.25 h | Time [5]: 0.25 h | Activity [6]: inactive

CC(C)[C@@H](N)C(=O)NCc1ccc(C(F)(F)F)cc1
ED50 [1]: 14 mg/kg | TD50 at 0.5 h [2]: 57 mg/kg | Ratio TD50/ED50 [7]: >38 | Time [8]: 1 h | Time [9]: 0.5 h | ED50 [10]: 13 mg/kg | Time [4]: 0.5 h | Time [5]: 0.25 h | ED50 [11]: 30 mg/kg | TD50 [12]: > 500 mg/kg | Activity [6]: inactive | Ratio TD50/ED50 [13]: 4.1

CC(C)[C@@H](N)C(=O)NCc1ccc(F)cc1
ED50 [1]: 32 mg/kg | TD50 at 0.5 h [2]: 97 mg/kg | Time [14]: 0.25 h | Ratio TD50/ED50 [7]: >24 | Time [8]: 0.5 h | Time [9]: 0.25 h | ED50 [10]: 21 mg/kg | Time [4]: 0.25 h | Time [5]: 0.25 h | ED50 [11]: 63 mg/kg | TD50 [12]: > 500 mg/kg | ED50 [15]: 32 mg/kg | Activity [6]: inactive | Ratio TD50/ED50 [13]: 3

CC(C)(C)[C@@H](N)C(=O)NCc1ccc(OCc2cccc(F)c2)cc1
ED50 [1]: 30 mg/kg | TD50 at 0.5 h [2]: 300 mg/kg | Time [8]: 0.25 h | ED50 [10]: > 30 mg/kg | Time [4]: 0.5 h | Time [5]: 0.5 h | TD50 [12]: > 30 mg/kg | Time [16]: 0.25 h | Activity [6]: inactive

COC[C@@H](N)C(=O)NCc1ccc(C(F)(F)F)cc1.Cl
TD50 at 0.5 h [17]: 48 mg/kg | Ratio TD50/ED50 [3]: 2.5 | ED50 [18]: > 31 mg/kg | ED50 [19]: 19 mg/kg | ED50 [20]: 55 mg/kg | Activity [6]: inactive

CC(C)(C)[C@@H](N)C(=O)NCc1ccc(COc2cccc(F)c2)cc1
ED50 [1]: 30 mg/kg | TD50 at 0.5 h [2]: 100 mg/kg | Time [8]: 2 h | ED50 [10]: 30 mg/kg | Time [4]: 0.5 h | Time [5]: 0.5 h | ED50 [11]: > 75 mg/kg | TD50 [12]: > 30 mg/kg | Time [16]: 0.25 h | Activity [6]: inactive

COC[C@@H](NC(C)=O)C(=O)NCc1ccccc1 [LACOSAMIDE]
TD50 at 0.5 h [17]: 19 mg/kg | TD50 at 0.5 h [2]: 27 mg/kg | Time [8]: 2 h | ED50 [18]: 15 mg/kg | ED50 [19]: 3.3 mg/kg | Time [4]: 0.5 h | ED50 [20]: 10 mg/kg | Time [5]: 0.25 h | ED50 [11]: 10 mg/kg | TD50 [12]: > 500 mg/kg

CC(C)[C@H](N)C(=O)NCc1ccccc1
ED50 [1]: > 300 mg/kg | TD50 at 0.5 h [2]: > 300 mg/kg | Activity [6]: inactive

CC(C)[C@@H](N)C(=O)NCc1ccc(-c2ccccc2)cc1
ED50 [1]: 30 mg/kg | TD50 at 0.5 h [2]: > 300 mg/kg | Time [8]: 2 h | ED50 [10]: 30 mg/kg | Time [4]: 0.5 h | Time [5]: 0.5 h | TD50 [12]: > 30 mg/kg | Time [16]: 0.25 h | Activity [6]: inactive

COc1ccc(CNC(=O)[C@H](N)C(C)C)cc1
ED50 [1]: > 300 mg/kg | TD50 at 0.5 h [2]: 30 mg/kg | Time [8]: 0.25 h | ED50 [10]: > 30 mg/kg | Time [4]: 0.5 h | Time [5]: 0.5 h | TD50 [12]: > 30 mg/kg | Time [16]: 0.25 h | Activity [6]: inactive

COC[C@@H](N)C(=O)NCc1ccccc1.Cl
TD50 at 0.5 h [17]: > 120 mg/kg | ED50 [1]: 48 mg/kg | TD50 at 0.5 h [2]: 30 mg/kg | Ratio TD50/ED50 [3]: >3.5 | ED50 [18]: > 67 mg/kg | ED50 [19]: 34 mg/kg | Time [4]: 0.25 h | ED50 [20]: > 67 mg/kg | Time [5]: 0.25 h | Activity [6]: inactive

CCC1(c2ccccc2)C(=O)NC(=O)NC1=O [PHENOBARBITAL]
TD50 at 0.5 h [2]: 66 mg/kg | Time [8]: 5 h | Time [4]: 1 h | Time [5]: 0.5 h | Time [16]: 0.5 h | Ratio TD50/ED50 [13]: 3

COC[C@@H](N)C(=O)NCc1ccc(OCc2cccc(F)c2)cc1
ED50 [1]: 15 mg/kg | TD50 at 0.5 h [2]: 58 mg/kg | Ratio TD50/ED50 [7]: >38 | Time [8]: 0.5 h | Time [9]: 0.5 h | ED50 [10]: 13 mg/kg | Time [4]: 0.5 h | Time [5]: 0.25 h | ED50 [11]: < 50 mg/kg | TD50 [12]: > 500 mg/kg | Activity [6]: inactive | Ratio TD50/ED50 [13]: 3.9

C[C@H](N)C(=O)NCc1ccccc1
ED50 [1]: > 300 mg/kg | TD50 at 0.5 h [2]: > 300 mg/kg

CC(C)[C@H](N)C(=O)NCc1ccc(COc2cccc(F)c2)cc1
ED50 [1]: 30 mg/kg | TD50 at 0.5 h [2]: 100 mg/kg | Time [8]: 0.25 h | ED50 [10]: > 30 mg/kg | TD50 [12]: > 30 mg/kg | Time [16]: 0.25 h | Activity [6]: inactive
